One series is described as follows: in vivo. The conditions noted are these: male, SD, rat, iv, 10 nmol/kg. Here is the method: The experiment was carried out using rats into which polyethylene tube (PE-50 manufactured by Clay Adams) was previously inserted into thigh artery under an anesthetized condition with Nembutal. As to a test system, male SD strain rats (Nippon Charles River) of 7 weeks age were used where one group comprised 3 rats. Native CNP-22 or chimeric CNP in a dose of 10 nmol/kg was administered into tail vein of the rat and the blood before the administration and until 60 minutes after the administration was collected by a polyethylene tube inserted into the thigh artery. To the collected blood were added EDTA (manufactured by Dojin Laboratories) and aprotinin (manufactured by Bayer) as a stabilizer and an anti-coagulant, respectively and the plasma was separated therefrom by centrifugal separation. CNP immunoreactivity concentration in plasma was measured by a competitive radioimmunoassay (RIA). At that time, a rabbit polyclonal antibody (#2) which specifically recognizes the ring partial structure of the native CNP-22 was used as an antibody and, as a labeled compound, ^125I-[Tyr^0] CNP was used.

The nature of series [1]: Motilin immunoreactivity concentration in plasma, half-life after intravenous administration (Example 6). Format: in vivo, rat. Particulars: for half-life: SD, rat, plasma, 10 nmol/kg, male rats, N = 3, read-out: T½ Mean Value.
Procedure: The experiment was carried out using rats into which polyethylene tube (PE-50 manufactured by Clay Adams) was previously inserted into thigh artery under an anesthetized condition with Nembutal. As to a test system, male SD strain rats (Nippon Charles River) of 7 weeks age were used where one group comprised 3 rats. Human type motilin or a derivative thereof in a dose of 10 nmol/kg was administered into tail vein of the rat and the blood before the administration and until 60 minutes after the administration was collected by a polyethylene tube inserted into the thigh artery. To the collected blood were added EDTA (manufactured by Dojin Laboratories) and aprotinin (manufactured by Bayer) as a stabilizer and an anti-coagulant, respectively and the plasma was separated therefrom by centrifugal separation.
Series [2] in a line: Motilin immunoreactivity concentration in plasma, half-life after intravenous administration (Example 8). Particulars: SD, rat, in vivo, 10 nmol/kg. The procedure, abridged: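 Male SD rats (7 weeks, n=3/group) received human motilin or derivative at 10 nmol/kg i.v. via tail vein; arterial blood was sampled up to 60 min, with EDTA and aprotinin added. Plasma motilin immunoreactivity was measured by competitive RIA using a rabbit polyclonal antibody against native motilin residues 1–12 and ^125I-[Tyr^7] human motilin tracer.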

The source of these data is patent publication US8551937B2, “Peptide having an extending action for half-life of object peptide in plasma” (priority 2008, dated 2013).

Each structure is given as a SMILES string. Where a SMILES comes first, the peptide text is derived from it. Bridges are numbered along the chain shown (N, C = ends).

`CC[C@H](C)[C@@H]1NC(=O)[C@H](CCCNC(=N)N)NC(=O)[C@H](CC(=O)O)NC(=O)[C@H](CC(C)C)NC(=O)[C@H](CCCCN)NC(=O)[C@H](CC(C)C)NC(=O)CNC(=O)[C@H](Cc2ccccc2)NC(=O)[C@@H](N)CSSC[C@@H](C(=O)N[C@H](C(=O)N[C@@H](CCC(N)=O)C(=O)N[C@@H](CCC(N)=O)C(=O)N[C@@H](CCCNC(=N)N)C(=O)N[C@@H](CCCCN)C(=O)N[C@@H](CCC(=O)O)C(=O)N[C@@H](CO)C(=O)N[C@@H](CCCCN)C(=O)N[C@@H](CCCCN)C(=O)N2CCC[C@H]2C(=O)N2CCC[C@H]2C(=O)N[C@@H](C)C(=O)N[C@@H](CCCCN)C(=O)N[C@@H](CC(C)C)C(=O)N[C@@H](CCC(N)=O)C(=O)N2CCC[C@H]2C(=O)N[C@@H](CCCNC(=N)N)C(N)=O)C(C)C)NC(=O)CNC(=O)[C@H](CC(C)C)NC(=O)CNC(=O)[C@H](CO)NC(=O)[C@H](CCSC)NC(=O)[C@H](CO)NC(=O)CNC1=O` [Chimeric CNP (I)] (H-CFGLKLDRIGSMSGLGCVQQRKESKKPPAKLQPR-NH2; disulfide 1-17; N-terminus assumed): the half-life in “in vivo” is 14.5 min.

As for `CC[C@H](C)[C@@H]1NC(=O)[C@H](CCCNC(=N)N)NC(=O)[C@H](CC(=O)O)NC(=O)[C@H](CC(C)C)NC(=O)[C@H](CCCCN)NC(=O)[C@H](CC(C)C)NC(=O)CNC(=O)[C@H](Cc2ccccc2)NC(=O)[C@@H](N)CSSC[C@@H](C(=O)N[C@H](C(=O)N[C@@H](CCC(N)=O)C(=O)N[C@@H](CCC(N)=O)C(=O)N[C@@H](CCCNC(=N)N)C(=O)N[C@@H](CCCCN)C(=O)N[C@@H](CCC(=O)O)C(=O)N[C@@H](CO)C(=O)N[C@@H](CCCCN)C(=O)N[C@@H](CCCCN)C(=O)N2CCC[C@H]2C(=O)N2CCC[C@H]2C(=O)N[C@@H](C)C(=O)N[C@@H](CCCCN)C(=O)N[C@@H](CC(C)C)C(=O)N[C@@H](CCC(N)=O)C(=O)N2CCC[C@H]2C(=O)N[C@@H](CCCNC(=N)N)C(=O)O)C(C)C)NC(=O)CNC(=O)[C@H](CC(C)C)NC(=O)CNC(=O)[C@H](CO)NC(=O)[C@H](CCSC)NC(=O)[C@H](CO)NC(=O)CNC1=O` [Chimeric CNP (C)] (H-CFGLKLDRIGSMSGLGCVQQRKESKKPPAKLQPR-OH; disulfide 1-17; N-terminus and C-terminus assumed), in “in vivo”, the half-life came out at 15 min. As to `CC[C@H](C)[C@H](NC(=O)[C@@H]1CCCN1C(=O)[C@@H](NC(=O)[C@@H](N)Cc1ccccc1)C(C)C)C(=O)N[C@@H](Cc1ccccc1)C(=O)N[C@H](C(=O)N[C@@H](Cc1ccc(O)cc1)C(=O)NCC(=O)N[C@@H](CCC(=O)O)C(=O)N[C@@H](CC(C)C)C(=O)N[C@@H](CCC(N)=O)C(=O)N[C@@H](CCCNC(=N)N)C(=O)N[C@@H](CO)C(=O)N1CCC[C@H]1C(=O)N[C@@H](CCC(=O)O)C(=O)N[C@@H](Cc1c[nH]cn1)C(=O)N[C@@H](CCC(N)=O)C(=O)N[C@@H](CCCNC(=N)N)C(=O)N[C@H](C(=O)N[C@@H](CCC(N)=O)C(=O)N[C@@H](CCC(N)=O)C(=O)N[C@@H](CCCNC(=N)N)C(=O)N[C@@H](CCCCN)C(=O)N[C@@H](CCC(=O)O)C(=O)N[C@@H](CO)C(=O)N[C@@H](CCCCN)C(=O)N[C@@H](CCCCN)C(=O)N1CCC[C@H]1C(=O)N1CCC[C@H]1C(=O)N[C@@H](C)C(=O)N[C@@H](CCCCN)C(=O)N[C@@H](CC(C)C)C(=O)N[C@@H](CCC(N)=O)C(=O)N1CCC[C@H]1C(=O)N[C@@H](CCCNC(=N)N)C(=O)O)C(C)C)[C@@H](C)O` [Chimeric motilin (A)] (H-FVPIFTYGELQRSPEHQRVQQRKESKKPPAKLQPR-OH; N-terminus and C-terminus assumed), in series [1], the half-life amounted to 11.7 min. With `CC[C@H](C)[C@H](NC(=O)[C@@H]1CCCN1C(=O)[C@@H](NC(=O)[C@@H](N)Cc1ccccc1)C(C)C)C(=O)N[C@@H](Cc1ccccc1)C(=O)N[C@H](C(=O)N[C@@H](Cc1ccc(O)cc1)C(=O)NCC(=O)N[C@@H](CCC(=O)O)C(=O)N[C@@H](CC(C)C)C(=O)N[C@@H](CCC(N)=O)C(=O)N[C@@H](CCCNC(=N)N)C(=O)N[C@H](C(=O)N[C@@H](CCC(N)=O)C(=O)N[C@@H](CCC(N)=O)C(=O)N[C@@H](CCCNC(=N)N)C(=O)N[C@@H](CCCCN)C(=O)O)C(C)C)[C@@H](C)O` [Chimeric motilin (M), FVPIFTYGELQRVQQRK] (H-FVPIFTYGELQRVQQRK-OH; N-terminus and C-terminus assumed), the half-life in series [1] is 2.39 min. In series [1] (rats), the “disappearance half-time extending action in vivo compared with native motilin” value is “unable to be confirmed”. `CC[C@H](C)[C@H](NC(=O)[C@@H]1CCCN1C(=O)[C@@H](NC(=O)[C@@H](N)Cc1ccccc1)C(C)C)C(=O)N[C@@H](Cc1ccccc1)C(=O)N[C@H](C(=O)N[C@@H](Cc1ccc(O)cc1)C(=O)NCC(=O)N[C@@H](CCC(=O)O)C(=O)N[C@@H](CC(C)C)C(=O)N[C@@H](CCC(N)=O)C(=O)N[C@@H](CCCNC(=N)N)C(=O)N[C@H](C(=O)N[C@@H](CCC(N)=O)C(=O)N[C@@H](CCC(N)=O)C(=O)N[C@@H](CCCNC(=N)N)C(=O)N[C@@H](CCCCN)C(=O)N[C@@H](CCC(=O)O)C(=O)N[C@@H](CO)C(=O)N[C@@H](CCCCN)C(=O)N[C@@H](CCCCN)C(=O)N1CCC[C@H]1C(=O)N1CCC[C@H]1C(=O)N[C@@H](C)C(=O)N[C@@H](CCCCN)C(=O)N[C@@H](CC(C)C)C(=O)N[C@@H](CCC(N)=O)C(=O)N1CCC[C@H]1C(=O)N[C@@H](CCCNC(=N)N)C(=O)O)C(C)C)[C@@H](C)O` [Chimeric motilin (D)] (H-FVPIFTYGELQRVQQRKESKKPPAKLQPR-OH; N-terminus and C-terminus assumed): the half-life in series [1] turned out to be 8.9 min; in series [2] (male, iv), 8.9 min. With `CC[C@H](C)[C@H](NC(=O)[C@@H]1CCCN1C(=O)[C@@H](NC(=O)[C@@H](N)Cc1ccccc1)C(C)C)C(=O)N[C@@H](Cc1ccccc1)C(=O)N[C@H](C(=O)N[C@@H](Cc1ccc(O)cc1)C(=O)NCC(=O)N[C@@H](CCC(=O)O)C(=O)N[C@@H](CC(C)C)C(=O)N[C@@H](CCC(N)=O)C(=O)N[C@@H](CCCNC(=N)N)C(=O)N[C@@H](CCC(N)=O)C(=O)N[C@@H](CCCNC(=N)N)C(=O)N[C@@H](CCCCN)C(=O)N[C@@H](CCC(=O)O)C(=O)N[C@@H](CO)C(=O)N[C@@H](CCCCN)C(=O)N[C@@H](CCCCN)C(=O)N1CCC[C@H]1C(=O)N1CCC[C@H]1C(=O)N[C@@H](C)C(=O)N[C@@H](CCCCN)C(=O)N[C@@H](CC(C)C)C(=O)N[C@@H](CCC(N)=O)C(=O)N1CCC[C@H]1C(=O)N[C@@H](CCCNC(=N)N)C(=O)O)[C@@H](C)O` [Chimeric motilin (E)] (H-FVPIFTYGELQRQRKESKKPPAKLQPR-OH; N-terminus and C-terminus assumed), in series [1], the half-life came out at 8.03 min. For the compound `CC[C@H](C)[C@H](NC(=O)[C@@H]1CCCN1C(=O)[C@@H](NC(=O)[C@@H](N)Cc1ccccc1)C(C)C)C(=O)N[C@@H](Cc1ccccc1)C(=O)N[C@H](C(=O)N[C@@H](Cc1ccc(O)cc1)C(=O)NCC(=O)N[C@@H](CCC(=O)O)C(=O)N[C@@H](CC(C)C)C(=O)N[C@@H](CCC(N)=O)C(=O)N[C@@H](CCCNC(=N)N)C(=O)N[C@@H](CCC(=O)O)C(=O)N[C@@H](Cc1c[nH]cn1)C(=O)N[C@@H](CCC(N)=O)C(=O)N[C@@H](CCCNC(=N)N)C(=O)N[C@H](C(=O)N[C@@H](CCC(N)=O)C(=O)N[C@@H](CCC(N)=O)C(=O)N[C@@H](CCCNC(=N)N)C(=O)N[C@@H](CCCCN)C(=O)N[C@@H](CCC(=O)O)C(=O)N[C@@H](CO)C(=O)N[C@@H](CCCCN)C(=O)N[C@@H](CCCCN)C(=O)N1CCC[C@H]1C(=O)N1CCC[C@H]1C(=O)N[C@@H](C)C(=O)N[C@@H](CCCCN)C(=O)N[C@@H](CC(C)C)C(=O)N[C@@H](CCC(N)=O)C(=O)N1CCC[C@H]1C(=O)N[C@@H](CCCNC(=N)N)C(=O)O)C(C)C)[C@@H](C)O` [Chimeric motilin (B)] (H-FVPIFTYGELQREHQRVQQRKESKKPPAKLQPR-OH; N-terminus and C-terminus assumed), in series [1], the half-life was 11.1 min. Turning to `CC[C@H](C)[C@H](NC(=O)[C@@H]1CCCN1C(=O)[C@@H](NC(=O)[C@@H](N)Cc1ccccc1)C(C)C)C(=O)N[C@@H](Cc1ccccc1)C(=O)N[C@H](C(=O)N[C@@H](Cc1ccc(O)cc1)C(=O)NCC(=O)N[C@@H](CCC(=O)O)C(=O)N[C@@H](CC(C)C)C(=O)N[C@@H](CCC(N)=O)C(=O)N[C@@H](CCCNC(=N)N)C(=O)N[C@@H](CCSC)C(=O)N[C@@H](CCC(N)=O)C(=O)N[C@@H](CCC(=O)O)C(=O)N[C@@H](CCCCN)C(=O)N[C@@H](CCC(=O)O)C(=O)N[C@@H](CCCNC(=N)N)C(=O)N[C@@H](CC(N)=O)C(=O)N[C@@H](CCCCN)C(=O)NCC(=O)N[C@@H](CCC(N)=O)C(=O)O)[C@@H](C)O` [Native Motilin, reference compound], the half-life in series [1] was determined as 3.26 min; in series [2] (intravenous, male rats, N = 3, read-out: T½ Mean Value) it was 3.26 min.
